For assay [1], the system named is JAK1/TYK2 pSTAT5 (Tyr694/699) in THP-1 cell line. Nature of the assay: IFNa-stimulated JAK1/TYK2 pSTAT5 (Tyr694/699) inhibition cellular assay, AlphaLISA. In kind it is cell-based. The note with it: THP-1 cells, IFNa-stimulated, AlphaLISA (Assay B), read-out: Cellular_THP1_IFNa-pSTATS_TYK2. Here is the method: Assay B: JAK1/TYK2 pSTAT5 (Tyr694/699) inhibition IC50 Cellular Assays
To evaluate the inhibition effect of compounds disclosed herein against TYK2, an IFNa-stimulated JAE1/TYK2 pSTAT5 (Tyr694/699) quantification assay was conducted in the THP-1 cell line using an AlphaLISA detection method (PerkinElmer ALSU-PST5). Compounds in DMSO were serially diluted in a 96-well plate (10 mM starting concentration, 6-fold dilutions, 8 concentrations total) prior to dispensing of 8 nL into a 384-well plate using an I.DOT non-contact liquid handler (Dispendix). Cells were collected via centrifugation at 300 ref for 5 min and resuspended in Hanks' Balanced Salt Solution (Gibco 14175-079), and 6 μl containing 2e4 cells was dispensed into each well of the 384-well plate containing test compounds or DMSO alone (final concentrations: 10000, 1666.67, 277.78, 46.30, 7.72, 1.29, 0.21 and 0.04 nM). Cells were then incubated for 1 h at 37° C. with 5% CO2 prior to the addition of 2 μL IFNa (100 ng/mL; PBL Assay Science 11175-1). Following an additional 30 min incubation at 37° C. with 5% CO2, 2 μL of 5× lysis buffer was added to each well using the I.DOT […]. Plates were sealed and incubated at RT for 10 min on a plate shaker set to 400 RPM. Cell lysates were then frozen at −80° C. before subsequent detection of pSTAT5 by AlphaLISA. At the time of the detection assay, cell lysates were thawed for 5 min at room temperature and then on a plate shaker set to 400 RPM for an additional 10 min. Following the manufacturer recommended protocol (Perkin Elmer), 5 μL of acceptor bead master mix was added to each well; plates were then resealed and incubated for 2 min at RT on a plate shaker (400 rpm) prior to an additional 2-h incubation without agitation (protected from light). Donor bead master mix, 5 uL per well, was then added to each well before 2 min of shaking (RT, 400 rpm) and 2-h incubation (RT, no shaking, protected from light). Levels of pSTAT5 protein were then measured as fluorescent signal at 615 nm with an EnVision multimode plate reader (Perkin Elmer). IC50 values were calculated in Dotmatics using the four-parameter logistic curve regression model with bottom fixed to 0 and Hill Slope fixed to −1.

The target of assay [2] is T1, TYK2 JH2 (Homo sapiens, UniProt P29597).
T1 construct: purchased DiscoverX (KINOMEscan KdELECT service); host or cells: E. coli BL21-derived (T7 phage display) or HEK-293
T1 sequence (P29597 589-875 limits assumed): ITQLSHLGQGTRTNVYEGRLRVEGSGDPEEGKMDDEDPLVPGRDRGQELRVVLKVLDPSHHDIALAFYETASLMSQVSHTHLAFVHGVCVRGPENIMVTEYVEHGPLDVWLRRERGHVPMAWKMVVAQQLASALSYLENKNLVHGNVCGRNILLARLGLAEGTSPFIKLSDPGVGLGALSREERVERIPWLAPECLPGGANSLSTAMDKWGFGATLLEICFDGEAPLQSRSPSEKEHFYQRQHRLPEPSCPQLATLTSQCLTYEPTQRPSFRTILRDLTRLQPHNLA
Nature of the assay: TYK2 JH2 binding assay (KINOMEscan KdELECT competitive binding). As to conditions: TYK2 JH2 domain, DiscoverX KINOMEscan KdELECT (Assay A); read-out: Biochemical TYK2_DiscoverX_JH2_BND_Kd. Here is the method:
Assay A: TYK2 JH2 Binding Assay
Competitive binding studies using TKY2 JH2-domain fragments were conducted by DiscoverX using the KINOMEscan (KdELECT) platform. Kinase-tagged T7 phage strains were prepared in an E. coli host derived from the BL21 strain. E. coli were grown to log-phase and infected with […] and incubated with shaking at 32° C. until lysis. The lysates were centrifuged and filtered to remove cell debris. The remaining kinases were produced in HEK-293 cells and subsequently tagged with DNA for qPCR detection. Streptavidin-coated magnetic beads were treated with biotinylated small molecule ligands for 30 minutes at room temperature to generate affinity resins for kinase assays. The liganded beads were blocked with excess biotin and washed with blocking buffer (SeaBlock (Pierce), 1% BSA, 0.05% Tween 20, 1 mM DTT) to remove unbound ligand and to reduce non-specific binding. Binding reactions were assembled by combining kinases, liganded affinity beads, and test compounds in 1× binding buffer (20% SeaBlock, 0.17×PBS, 0.05% Tween 20, 6 mM DTT). Test compounds were prepared as 111× stocks in 100% DMSO. Kds were determined using an 11-point 3-fold compound dilution series with three DMSO control points. All compounds for Kd measurements are distributed by acoustic transfer (non-contact dispensing) in 100% DMSO. The compounds were then diluted directly into the assays such that the final concentration of DMSO was 0.9%. All reactions performed in polypropylene 384-well plate. Each was a final volume of 0.02 ml. The assay plates were incubated at room temperature with shaking for 1 hour and the affinity beads were washed with wash buffer (1×PBS, 0.05% Tween 20). The beads were then re-suspended in elution buffer (1×PBS, 0.05% Tween 20, 0.5 μM non-biotinylated affinity ligand) and incubated at room temperature with shaking for 30 minutes. The kinase concentration in the eluates was measured by qPCR.

Like-named read-outs stand apart in the source and are kept apart here.

Regarding `CNc1ncc(-c2nc3cc(C4CCN([C@@]5(C)COC[C@H]5O)CC4)ccc3o2)c2cc(NC(=O)C3CC3)ncc12` (racemic) [Example 260, N-(5-(5-(1-(4-hydroxy-3-methyltetrahydrofuran-3-yl)piperidin-4-yl)benzo[d]oxazol-2-yl)-8-(methylamino)-2,7-naphthyridin-3-yl)cyclopropanecarboxamide], in assay [1] (Homo sapiens), the IC50 is at most 0.5 µM. Besides, the Kd in assay [2] was at most 0.1 µM.

For `CNc1ncc(-c2nc3cc(N4C[C@@H](C)O[C@H](C)C4)ccc3o2)c2cc(NC(=O)C3CC3)ncc12` (racemic) [Example 316, N-(5-(5-(2,6-dimethylmorpholino)benzo[d]oxazol-2-y1)-8-(methylamino)-2,7-naphthyridin-3-yl)cyclopropanecarboxamide (trans racemate)], the IC50 in assay [1] (Homo sapiens) is at most 0.5 µM. Moreover, the Kd in assay [2] was at most 0.1 µM.

Take `CNc1ncc(-c2nc3cc(OC)ccc3o2)c2cc(NC(=O)[C@@H]3C[C@H]3C)ncc12` (racemic) [Example 382, N-(5-(5-methoxybenzo[d]oxazol-2-yl)-8-(methylamino)-2,7-naphthyridin-3-y1)-2-methylcyclopropane-1~carboxamide]: the IC50 in assay [1] (Homo sapiens) was at most 0.5 µM. Besides, the Kd in assay [2] was at most 0.1 µM.

Take `CNc1ncc(-c2nc3cc(OC)ccc3o2)c2cc(NC(=O)[C@@H]3C[C@@H]3C)ncc12` (racemic) [Example 383, N-(5-(5-methoxybenzo[d]oxazol-2-yl)-8-(methylamino)-2,7-naphthyridin-3-y1)-2-methylcyclopropane-1-carboxamide]: the IC50 in assay [1] (Homo sapiens) is at most 0.5 µM. The Kd in assay [2] was at most 0.1 µM.

In the case of `CNc1ncc(-c2nc3cc(OC)ccc3o2)c2cc(NC(=O)[C@@H]3C[C@H]3C#N)ncc12` (racemic) [Example 385, 2-cyano-N-(5-(5-methoxybenzo[d]oxazol-2-y1)-8-(methylamino)-2,7-naphthyridin-3-yl)cyclopropane-1-carboxamide], in assay [1] (Homo sapiens), the IC50 is at most 0.5 µM. The Kd in assay [2] is at most 0.1 µM.

On to `CCOC(=O)[C@@H]1C[C@@H]1C(=O)Nc1cc2c(-c3nc4cc(OC)ccc4o3)cnc(NC)c2cn1` (racemic) [Example 391, ethyl 2-((5-(5-methoxybenzo[d]oxazol-2-yl)-8-(methylamino)-2,7-naphthyridin-3-yl)carbamoyl)cyclopropane-1-carboxylate], for which the IC50 in assay [1] (Homo sapiens) is at most 0.5 µM. In addition, the Kd in assay [2] is at most 0.1 µM.

Consider `CNc1ncc(-c2nc3cc(OC)ccc3o2)c2cc(NC(=O)[C@@H]3C[C@@H]3C(F)F)ncc12` (racemic) [Example 393, 2-(difluoromethyl)-N-(5-(5-methoxybenzo[d]oxazol-2-yl)-8-(methylamino)-2,7-naphthyridin-3-yl)cyclopropane-1-carboxamide], for which the IC50 in assay [1] (Homo sapiens) was at most 0.5 µM. Moreover, the Kd in assay [2] was at most 0.1 µM.

In the case of `CNc1ncc(-c2nc3cc(OC)ccc3o2)c2cc(NC(=O)[C@@H]3C[C@@H]3C(F)(F)F)ncc12` (racemic) [Example 396, N-(5-(5-methoxybenzo[d]oxazol-2-yl)-8-(methylamino)-2,7-naphthyridin-3-yl)-2-(trifluoromethyl)cyclopropane-1-carboxamide], the IC50 in assay [1] (Homo sapiens) is at most 0.5 µM. Also, the Kd in assay [2] is at most 0.1 µM.

Consider `CNc1ncc(-c2nc3cc(OC)ccc3o2)c2cc(NC(=O)[C@@H]3C[C@@H]3CF)ncc12` (racemic) [Example 399, 2-(fluoromethyl)-N-(5-(5-methoxybenzo[d]oxazol-2-yl)-8-(methylamino)-2,7-naphthyridin-3-yl)cyclopropane-1-carboxamide], for which, in assay [1] (Homo sapiens), the IC50 was at most 0.5 µM. Also, the Kd in assay [2] is at most 0.1 µM.

On to `CNc1ncc(-c2nc3cc(OC)ccc3o2)c2cc(NC(=O)[C@H]3C[C@H]3C(C)(C)O)ncc12` (racemic) [Example 405, 2-(2-hydroxypropan-2-yl)-N-(5-(5-methoxybenzo[d]oxazol-2-yl)-8-(methylamino)-2,7-naphthyridin-3-yl)cyclopropane-1-carboxamide], for which, in assay [1] (Homo sapiens), the IC50 is at most 0.5 µM. Further, the Kd in assay [2] was at most 0.1 µM.

As for `CNc1ncc(-c2nc3cc(OC)ccc3o2)c2cc(NC(=O)[C@H]3C[C@@H]3C(C)(C)O)ncc12` (racemic) [Example 406, 2-(2-hydroxypropan-2-yl)-N-(5-(5-methoxybenzo[d]oxazol-2-yl)-8-(methylamino)-2,7-naphthyridin-3-yl)cyclopropane-1-carboxamide], the IC50 in assay [1] (Homo sapiens) was at most 0.5 µM. The Kd in assay [2] was at most 0.1 µM.

Take `CNc1ncc(-c2nc3cc(N4CCO[C@@H](C)C4)ccc3o2)c2cc(NC(=O)[C@@H]3C[C@@H]3CF)ncc12` (racemic) [Example 410, 2-(fluoromethyl)-N-(8-(methylamino)-5-(5-((S)-2-methylmorpholino)benzo[d]oxazol-2-yl)-2,7-naphthyridin-3-yl)cyclopropane-1-carboxamide]: the IC50 in assay [1] (Homo sapiens) was at most 0.5 µM. Besides, the Kd in assay [2] was at most 0.1 µM.

Regarding `CNc1ncc(-c2nc3cc(N4CCO[C@@H](C)C4)ccc3o2)c2cc(NC(=O)[C@@H]3C[C@@H]3C(F)F)ncc12` (racemic) [Example 413, 2-(difluoromethyl)-N-(8-(methylamino)-5-(5-((S)-2-methylmorpholino)benzo[d]oxazol-2-yl)-2,7-naphthyridin-3-yl)cyclopropane-1-carboxamide], the IC50 in assay [1] (Homo sapiens) was at most 0.5 µM. In addition, in assay [2], the Kd is at most 0.1 µM.

As to `CNc1ncc(-c2nc3cc(N4CCO[C@@H](C)C4)ccc3o2)c2cc(NC(=O)[C@H]3C[C@H]3C(C)(C)O)ncc12` (racemic) [Example 416, 2-(2-hydroxypropan-2-yl)-N-(8-(methylamino)-5-(5-((S)-2-methylmorpholino)benzo[d]oxazol-2-yl)-2,7-naphthyridin-3-yl)cyclopropane-1-carboxamide], in assay [1] (Homo sapiens), the IC50 is at most 0.5 µM. In assay [2], the Kd was at most 0.1 µM.

Turning to `[2H]C([2H])([2H])Nc1ncc(-c2nc3ccccc3o2)c2cc(NC(=O)C3CC3F)ncc12` (racemic) [Example 433, N-(5-(benzo[d]oxazol-2-yl)-8-((methyl-d3)amino)-2,7-naphthyridin-3-yl)-2-fluorocyclopropane-1-carboxamide], the IC50 in assay [1] (Homo sapiens) is at most 0.5 µM. In assay [2], the Kd is at most 0.1 µM.

In the case of `[2H]C([2H])([2H])Nc1ncc(-c2nc3ccccc3o2)c2cc(NC(=O)C3CC3F)ncc12` (racemic) [Example 434, N-(5-(benzo[d]oxazol-2-yl)-8-((methyl-d3)amino)-2,7-naphthyridin-3-yl)-2-fluorocyclopropane-1-carboxamide], the IC50 in assay [1] is at most 0.5 µM. Besides, the Kd in assay [2] is at most 0.1 µM.

For the molecule `[2H]C([2H])([2H])Nc1ncc(-c2nc3cc(OC)ccc3o2)c2cc(NC(=O)[C@H]3C[C@H]3C)ncc12` (racemic) [Example 436, N-(5-(5-methoxybenzo[d]oxazol-2-yl)-8-((methyl-d3)amino)-2,7-naphthyridin-3-yl)-2-methylcyclopropane-1-carboxamide], the IC50 in assay [1] (Homo sapiens) is at most 0.5 µM. In addition, the Kd in assay [2] was at most 0.1 µM.

For the origin of these results see US20240025906A1 (NEURON23, INC., priority 2022, published 2024).
